Experimental data: patent US4965280A, “Antifungal carbinols” (E. I. Du Pont de Nemours and Company, priority 1989, dated 1990)
Converted amounts (≈) assume the structure as drawn.

Experiments:
[1] = tested on: Rhizoctonia solani; assay: Example F rice sheath blight; assay type: in vivo; details: Rhizoctonia solani, 144 h, 100 PPM; read-out: disease control rating, Ex. F
How it was run: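 Application rates were 100 or 20 ppm, delivered as a foliar spray to the point of run-off on rice seedlings. The formulation used 6% acetone in water with 250 ppm surfactant.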

[2] = tested on: PURPLE NUTSEDGE; assay: Test D; assay type: in vivo, Cyperus rotundus
[3] = tested on: Fusarium oxysporum f. sp. cucumerinum; assay: Example L cucumber wilt; assay type: in vivo; details: 336 h, 5 kg/ha, read-out: disease control rating, Ex. L
Procedure: […] Seeds and soil were then inoculated with a mixture of sand, cereal and mycelium of the fungus Fusarium oxysporum f. sp. cucumerinum, causal agent of cucumber wilt, and incubated in a growth chamber at 30° C. for 14 days. Disease ratings were then made.

[4] = tested on: Pyricularia oryzae; assay: whole plant or invertebrate; assay type: in vivo; details: Pyricularia oryzae, 120 h, read-out: disease control rating, Ex. E, 100 PPM
[5] = tested on: Candida albicans ATCC 11651; assay: In vitro antifungal MIC, microtiter broth dilution; details: Candida albicans, ATCC11651, 24 h, read-out: MIC values, C. albicans, 30°, 24 hours
[6] = tested on: WATERCHESTNUT; assay: Test C rice paddy; assay type: in vivo, Eleocharis spp.; details: Eleocharis, 504 h, 21 days, read-out: plant response; for pest or weed control at 64 g/ha: 0064 G/HA; for pest or weed control at 125 g/ha: 0125 G/HA; for pest or weed control at 250 g/ha: 0250 G/HA; for pest or weed control at 500 g/ha: 0500 G/HA
Text: (§1) Sixteen cm diameter Airlite plastic pots were partially filled with Tama slit loam soil and the soil saturated with water. Japonica and Indica rice seedlings a the 2.0 to 2.5 leaf stage were transplanted into 1/3 of the pots. Into another third of the pots were transplanted seedling or sprouted tubers of water plantain (Alisma trivale), Scripus (Scirpus paludosus), Cyperus (Cyperus esculentus), and arrowhead (Sagittaria spp.). The remaining pots were planted with barnyardgrass (Echinochloa crusgalli) seeds and sprouted tubes of water chestnut (Eleocharis spp.). These weeds all represent major rice weeds or genera of weeds important in rice. Three to four days after planting, the water level was raised to 3 cm (about 1200 ml/pot) and maintained a this level throughout the test. Chemical treatments were applied directly to the paddy water, within 24 hours of raising the water, after being formulated in a nonphytotoxic solvent. The pots were maintained in the greenhouse.

[7] = tested on: Puccinia recondita; assay: Example G wheat leaf rust; assay type: in vivo; details: 100 PPM, read-out: disease control rating, Ex. G
[8] = tested on: Botrytis cinerea; assay: Example C bean grey mold; assay type: in vivo; details: Botrytis cinerea, 24 h, 100 PPM; read-out: disease control rating, Ex. C
How it was run: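 At 20 or 100 ppm, each compound was applied as an aqueous suspension (acetone 6% final; TREM 014 250 ppm) sprayed onto young broad bean plants to the point of run-off.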

[9] = tested on: LARGE CRABGRASS; assay: Test D; assay type: in vivo, Digitaria sanguinalis
[10] = tested on: BARNYARDGRASS; assay: Test C rice paddy; assay type: in vivo, Echinochloa crusgalli; details: Echinochloa crus-galli, 504 h, 21 days, read-out: plant response; for pest or weed control at 64 g/ha: 0064 G/HA; for pest or weed control at 125 g/ha: 0125 G/HA; for pest or weed control at 250 g/ha: 0250 G/HA; for pest or weed control at 500 g/ha: 0500 G/HA
Text: as §1

[11] = tested on: ARROWHEAD; assay: Test C rice paddy; assay type: in vivo, Sagittaria spp.; details: Sagittaria, 504 h, 21 days, read-out: plant response; for pest or weed control at 64 g/ha: 0064 G/HA; for pest or weed control at 125 g/ha: 0125 G/HA; for pest or weed control at 250 g/ha: 0250 G/HA; for pest or weed control at 500 g/ha: 0500 G/HA
Text: as §1

[12] = tested on: Venturia inaequalis; assay: Example A apple scab; assay type: in vivo; details: 100 PPM, read-out: disease control rating, Ex. A
How it was run: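 First, compounds are taken up in acetone amounting to 6% of the final volume. Next, they are suspended in purified water with 250 ppm TREM 014 at 100 or 20 ppm. Finally, seedlings of apple are sprayed until run-off.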

[13] = tested on: Aspergillus fumigatus ATCC 28214; assay: In vitro antifungal MIC, microtiter broth dilution; details: Aspergillus fumigatus, ATCC28214, 24 h, read-out: MIC values, A. fumigatus, 30°, 24 hours
Procedure: In vitro activity (Table 5) is expressed in terms of the minimal inhibitory concentration (MIC) of the test compound which inhibits the growth of yeasts and fungi.
The target organisms, Candida albicans ATCC 11651 and Aspergillus fumigatus ATCC 28214 are standardized, [V. Bezjak, J. Clinical Micro., 21 509-512 (1984)], to a concentration of 10^7 organisms/ml and maintained at -70° until use. Test compounds are solubilized in dimethyl sulfoxide (DMSO) and diluted in Eagle's Minimum Essential Medium (EMEM) broth to achieve a final concentration of 200 μg/ml. Stock solutions of standard antifungal agents are stored at -70° and diluted in EMEM as required.
The in vitro assay utilizes a microtiter broth dilution technique [L. Polonelli and G. Morace, Mycopathologia, 86, 21-28 (1984)] and C. […] The appropriate wells are inoculated with the required organism (C. albicans at 1×10^4 organisms/ml and A. fumigatus at 5×10^5 organisms/ml) and the assay incubated at 30° for 24 hours.

[14] = tested on: PERLITE CORN; assay: Test D, soil covered with perlite; assay type: in vivo, Zea mays
Procedure: The Corn and Sorghum Herbicide Test included the following species in both the preemergence and postemergence evaluations:
Postemergence plantings were grown in Sassafras sandy loam soil. Corn and soybeans were grown in separate 25 cm diameter containers. Sorghum and the seven grass weed species were grown in two 18 cm diameter containers, 4 species per container. The seven broadleaf weed species were also grown in two 18 cm diameter containers, 4 species in one container, 3 species in the second container. One additional planting of corn in an 18 cm diameter container was made. The soil surface of this additional container of corn was covered with the absorbent, perlite, before spray treatment so that test chemicals would enter the plant only via the foliage. The plants were grown 10-21 days, dependent upon the species and then sprayed postemergence with the test chemicals dissolved in a nonpytotoxic solvent.
Treated plants and controls were maintained in the greenhouse for 2 to 4 weeks. Visual planting response ratings were made on a percentage scale of 0 to 100 in comparison with a control where 0=no injury, and 100=death.

Row | SMILES | pest or weed control at 100 ppm [1] [%] | plant response ([2]; POSTEMERGENCE 0250 GM/HA) [%] | plant response ([2]; POSTEMERGENCE 0500 GM/HA) [%] | plant response ([2]; PREEMERGENCE 0125 GM/HA) [%] | plant response ([2]; PREEMERGENCE 0250 GM/HA) [%] | plant response ([2]; PREEMERGENCE 0500 GM/HA) [%] | pest or weed control at 5000 g/ha [3] [%] | pest or weed control at 100 ppm [4] [%] | MIC [5] [µg/mL] | pest or weed control at 64 g/ha [6] [%] | pest or weed control at 125 g/ha [6] [%] | pest or weed control at 250 g/ha [6] [%] | pest or weed control at 500 g/ha [6] [%] | pest or weed control at 1000 g/ha [6] [%] | pest or weed control at 100 ppm [7] [%] | pest or weed control at 100 ppm [8] [%] | plant response ([9]; POSTEMERGENCE 0250 GM/HA) [%] | plant response ([9]; POSTEMERGENCE 0500 GM/HA) [%] | plant response ([9]; PREEMERGENCE 0064 GM/HA) [%] | plant response ([9]; PREEMERGENCE 0125 GM/HA) [%] | also measured
1 | C=C(c1ccccc1)C(O)(Cn1cncn1)c1ccc(Cl)cc1Cl (stereo not shown) [Example 50, 2-(2,4-Dichlorophenyl)-3-phenyl-1-(1H-1,2,4-triazol-1-yl)-3-buten-2-ol] | 93 | 0 | 0 | 0 | 0 | 30 | 0 | 86 | 0.1 (≈ 0.278 µM) | 0 | 0 | 0 | 0 | 0 | 100 | 98 | 70 | 100 | 40 | 75 | plant response ([2]; PREEMERGENCE 0064 GM/HA): 0%; plant response ([9]; PREEMERGENCE 0250 GM/HA): 100%; plant response ([9]; PREEMERGENCE 0500 GM/HA): 100%; pest or weed control at 64 g/ha [10]: 0%; pest or weed control at 125 g/ha [10]: 0%; pest or weed control at 250 g/ha [10]: 60%; pest or weed control at 500 g/ha [10]: 70%; pest or weed control at 1000 g/ha [10]: 70%; pest or weed control at 64 g/ha [11]: 0%; pest or weed control at 125 g/ha [11]: 0%; pest or weed control at 250 g/ha [11]: 0%; pest or weed control at 500 g/ha [11]: 30%; pest or weed control at 1000 g/ha [11]: 50%; pest or weed control at 100 ppm [12]: 100%; MIC [13]: 0.8 µg/mL (≈ 2.22 µM); plant response ([14]; POSTEMERGENCE 0250 GM/HA): 0%; plant response ([14]; POSTEMERGENCE 0500 GM/HA): 0%
2 | C=C(c1ccccc1Cl)C(O)(Cn1cncn1)c1ccc(F)cc1F (stereo not shown) [Example 35] | 100 | 0 | 0 | 0 | 0 | 50 | 0 | 0 | 0.03 (≈ 0.0829 µM) | 60 | 40 | 60 | 0 | 0 | 96 | 96 | 30 | 30 | 50 | 70 | plant response ([9]; PREEMERGENCE 0250 GM/HA): 95%; plant response ([9]; PREEMERGENCE 0500 GM/HA): 100%; pest or weed control at 64 g/ha [10]: 70%; pest or weed control at 125 g/ha [10]: 100%; pest or weed control at 250 g/ha [10]: 80%; pest or weed control at 500 g/ha [10]: 100%; pest or weed control at 1000 g/ha [10]: 95%; pest or weed control at 64 g/ha [11]: 0%; pest or weed control at 125 g/ha [11]: 0%; pest or weed control at 250 g/ha [11]: 40%; pest or weed control at 500 g/ha [11]: 50%; pest or weed control at 1000 g/ha [11]: 95%; pest or weed control at 100 ppm [12]: 100%; MIC [13]: 0.1 µg/mL (≈ 0.276 µM); plant response ([14]; POSTEMERGENCE 0250 GM/HA): 0%; plant response ([14]; POSTEMERGENCE 0500 GM/HA): 0%
